Test results as given in patent publication US7238689B2, “Isoxazoline derivative and herbicide comprising the same as active ingredient” (Ihara Chemical Industry Co., Ltd., priority 2001, dated 2007).

test system: Setaria viridis (L.) Beauv.; assay: Herbicidal effect by upland foliage treatment; assay type: in vivo; design: scale not given here; conditions: active ingredient 1000 g/ha, examined at 14th day from treatment
Procedure: (§1) A sand was filled in a plastic pot of 80 cm^2. Seeds of Echinochloa crus-galli (L.) Beauv. var. crus-galli and Setaria viridis (L.) Beauv. were sowed. Breeding was made in a greenhouse for 2 weeks. Wettable powders produced in accordance with the Formulation 1 were diluted with water and sprayed on the whole foliage of plants from above the plants using a small sprayer in an amount of 1,000 liters per 1 hectare so that the amount of each active ingredient became 1,000 g per 1 hectare. Then, breeding was made in the greenhouse, and the herbicidal effect of each wettable powder was examined at the 14th day from the treatment in accordance with the standard shown in Table 21.

SMILES | herbicidal effect (index per standard of Table 21), Setaria viridis (L.) Beauv.
Cc1nsc(Cl)c1CS(=O)(=O)C1=NOC(C)(C)C1 [4-0002, [(5-chloro-3-methyl-isothiazol-4-yl)-methylsulfonyl]-5,5-dimethyl-2-isoxazoline] | 4
CCn1nc(C(F)(F)F)c(CS(=O)(=O)C2=NOC(C)(C)C2)c1Cl [3-0073] | 4
COCn1nc(Cl)c(CS(=O)(=O)C2=NOC(C)(C)C2)c1C(F)(F)F [3-0119] | 4
CC1(C)CC(S(=O)(=O)Cc2c(C(F)(F)F)cnn2-c2ccccc2)=NO1 [5-0007] | 5
Cc1nn(C)c(CS(=O)(=O)C2=NOC(C)(C)C2)c1Cl [5-0001] | 4
CC1(C)CC(S(=O)(=O)Cc2ncon2)=NO1 [9-0005] | 4
CCOCn1nc(C(F)(F)F)c(CS(=O)(=O)C2=NOC(C)(C)C2)c1Cl [3-0120] | 5
CC(=O)c1c(C)sc(C)c1CS(=O)(=O)C1=NOC(C)(C)C1 [2-0008] | 5
Cc1cc[n+]([O-])c(Cl)c1CS(=O)(=O)C1=NOC(C)(C)C1 [7-0008] | 5

test system: Echinochloa crus-galli (L.) Beauv. var. crus-galli; assay: Herbicidal effect by upland foliage treatment; assay type: in vivo; design: scale not given here; conditions: active ingredient 1000 g/ha, examined at 14th day from treatment
Procedure: as §1

SMILES | herbicidal effect (index per standard of Table 21), Echinochloa curs-galli (L.) Beauv. Var. crus-galli
Cc1nsc(Cl)c1CS(=O)(=O)C1=NOC(C)(C)C1 [4-0002, [(5-chloro-3-methyl-isothiazol-4-yl)-methylsulfonyl]-5,5-dimethyl-2-isoxazoline] | 5
CCn1nc(C(F)(F)F)c(CS(=O)(=O)C2=NOC(C)(C)C2)c1Cl [3-0073] | 5
COCn1nc(Cl)c(CS(=O)(=O)C2=NOC(C)(C)C2)c1C(F)(F)F [3-0119] | 5
CC1(C)CC(S(=O)(=O)Cc2c(C(F)(F)F)cnn2-c2ccccc2)=NO1 [5-0007] | 5
Cc1nn(C)c(CS(=O)(=O)C2=NOC(C)(C)C2)c1Cl [5-0001] | 5
CC1(C)CC(S(=O)(=O)Cc2ncon2)=NO1 [9-0005] | 4
CCOCn1nc(C(F)(F)F)c(CS(=O)(=O)C2=NOC(C)(C)C2)c1Cl [3-0120] | 5
CC(=O)c1c(C)sc(C)c1CS(=O)(=O)C1=NOC(C)(C)C1 [2-0008] | 5
Cc1cc[n+]([O-])c(Cl)c1CS(=O)(=O)C1=NOC(C)(C)C1 [7-0008] | 5

test system: Monochoria vaginalis (Murm. f.) Presl var. plantaginea (Roxb.) Solms-Laub.; assay: Herbicidal effect by paddy field soil treatment; assay type: in vivo; design: scale not given here; conditions: wettable powder, active ingredient 1000 g/ha, examined at the 21st day from the treatment
In short: (§2)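 Seeds sown in puddled paddy soil under 3 cm of water; the next day wettable powders diluted in water were dropped onto the water surface at 1,000 g active ingredient/ha. Plants grown in a greenhouse, with herbicidal effect scored on day 21 against a rating standard.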

SMILES | Herbicidal effect index, Monochoria vaginalis (Burm. F.) Presl var. plantaginea (Roxb.) Solms-Laub.
Cc1nsc(Cl)c1CS(=O)(=O)C1=NOC(C)(C)C1 [4-0002, [(5-chloro-3-methyl-isothiazol-4-yl)-methylsulfonyl]-5,5-dimethyl-2-isoxazoline] | 5
CCn1nc(C(F)(F)F)c(CS(=O)(=O)C2=NOC(C)(C)C2)c1Cl [3-0073] | 5
COCn1nc(Cl)c(CS(=O)(=O)C2=NOC(C)(C)C2)c1C(F)(F)F [3-0119] | 5
CC1(C)CC(S(=O)(=O)Cc2c(C(F)(F)F)cnn2-c2ccccc2)=NO1 [5-0007] | 5
Cc1nn(C)c(CS(=O)(=O)C2=NOC(C)(C)C2)c1Cl [5-0001] | 5
CC1(C)CC(S(=O)(=O)Cc2ncon2)=NO1 [9-0005] | 5
CCOCn1nc(C(F)(F)F)c(CS(=O)(=O)C2=NOC(C)(C)C2)c1Cl [3-0120] | 5
CC(=O)c1c(C)sc(C)c1CS(=O)(=O)C1=NOC(C)(C)C1 [2-0008] | 5
Cc1cc[n+]([O-])c(Cl)c1CS(=O)(=O)C1=NOC(C)(C)C1 [7-0008] | 5

test system: Echinochloa oryzicola Vasing; assay: Herbicidal effect by paddy field soil treatment; assay type: in vivo; design: scale not given here; conditions: wettable powder, active ingredient 1000 g/ha, examined at the 21st day from the treatment
In short: as §2

SMILES | Herbicidal effect index, Echinochloa oryzicola Vasing
Cc1nsc(Cl)c1CS(=O)(=O)C1=NOC(C)(C)C1 [4-0002, [(5-chloro-3-methyl-isothiazol-4-yl)-methylsulfonyl]-5,5-dimethyl-2-isoxazoline] | 5
CCn1nc(C(F)(F)F)c(CS(=O)(=O)C2=NOC(C)(C)C2)c1Cl [3-0073] | 5
COCn1nc(Cl)c(CS(=O)(=O)C2=NOC(C)(C)C2)c1C(F)(F)F [3-0119] | 5
CC1(C)CC(S(=O)(=O)Cc2c(C(F)(F)F)cnn2-c2ccccc2)=NO1 [5-0007] | 5
Cc1nn(C)c(CS(=O)(=O)C2=NOC(C)(C)C2)c1Cl [5-0001] | 5
CC1(C)CC(S(=O)(=O)Cc2ncon2)=NO1 [9-0005] | 5
CCOCn1nc(C(F)(F)F)c(CS(=O)(=O)C2=NOC(C)(C)C2)c1Cl [3-0120] | 5
CC(=O)c1c(C)sc(C)c1CS(=O)(=O)C1=NOC(C)(C)C1 [2-0008] | 5
Cc1cc[n+]([O-])c(Cl)c1CS(=O)(=O)C1=NOC(C)(C)C1 [7-0008] | 5

test system: Setaria viridis (L.) Beauv.; assay: Herbicidal effect by upland field soil treatment; assay type: in vivo; design: scale not given here; conditions: active ingredient 1000 g/ha, examined at 21st day from treatment
Excerpt: (§3) An upland field soil was filled in a plastic pot of 80 cm^2. Seeds of Echinochloa crus-galli (L.) Beauv. var. crusgalli and Setaria viridis (L.) Beauv. were sowed, followed by covering with the same soil. […] Then, breeding was made in a greenhouse, and the herbicidal effect of each wettable powder was examined at the 21st day from the treatment in accordance with the standard shown in Table 21.

SMILES | herbicidal effect (index per standard of Table 21), Setaria viridis (L.) Beauv.
Cc1nsc(Cl)c1CS(=O)(=O)C1=NOC(C)(C)C1 [4-0002, [(5-chloro-3-methyl-isothiazol-4-yl)-methylsulfonyl]-5,5-dimethyl-2-isoxazoline] | 5
CCn1nc(C(F)(F)F)c(CS(=O)(=O)C2=NOC(C)(C)C2)c1Cl [3-0073] | 5
COCn1nc(Cl)c(CS(=O)(=O)C2=NOC(C)(C)C2)c1C(F)(F)F [3-0119] | 5
CC1(C)CC(S(=O)(=O)Cc2c(C(F)(F)F)cnn2-c2ccccc2)=NO1 [5-0007] | 5
Cc1nn(C)c(CS(=O)(=O)C2=NOC(C)(C)C2)c1Cl [5-0001] | 5
CC1(C)CC(S(=O)(=O)Cc2ncon2)=NO1 [9-0005] | 4
CCOCn1nc(C(F)(F)F)c(CS(=O)(=O)C2=NOC(C)(C)C2)c1Cl [3-0120] | 5
CC(=O)c1c(C)sc(C)c1CS(=O)(=O)C1=NOC(C)(C)C1 [2-0008] | 5
Cc1cc[n+]([O-])c(Cl)c1CS(=O)(=O)C1=NOC(C)(C)C1 [7-0008] | 5

test system: Echinochloa crus-galli (L.) Beauv. var. crusgalli; assay: Herbicidal effect by upland field soil treatment; assay type: in vivo; design: scale not given here; conditions: active ingredient 1000 g/ha, examined at 21st day from treatment
Excerpt: as §3

SMILES | herbicidal effect (index per standard of Table 21), Echinochloa curs-galli (L.) Beauv. Var. crus-galli
Cc1nsc(Cl)c1CS(=O)(=O)C1=NOC(C)(C)C1 [4-0002, [(5-chloro-3-methyl-isothiazol-4-yl)-methylsulfonyl]-5,5-dimethyl-2-isoxazoline] | 5
CCn1nc(C(F)(F)F)c(CS(=O)(=O)C2=NOC(C)(C)C2)c1Cl [3-0073] | 5
COCn1nc(Cl)c(CS(=O)(=O)C2=NOC(C)(C)C2)c1C(F)(F)F [3-0119] | 5
CC1(C)CC(S(=O)(=O)Cc2c(C(F)(F)F)cnn2-c2ccccc2)=NO1 [5-0007] | 5
Cc1nn(C)c(CS(=O)(=O)C2=NOC(C)(C)C2)c1Cl [5-0001] | 5
CC1(C)CC(S(=O)(=O)Cc2ncon2)=NO1 [9-0005] | 5
CCOCn1nc(C(F)(F)F)c(CS(=O)(=O)C2=NOC(C)(C)C2)c1Cl [3-0120] | 5
CC(=O)c1c(C)sc(C)c1CS(=O)(=O)C1=NOC(C)(C)C1 [2-0008] | 5
Cc1cc[n+]([O-])c(Cl)c1CS(=O)(=O)C1=NOC(C)(C)C1 [7-0008] | 5
